# Experimental data: patent publication US20170303557A1, “PURIFICATION OF POLYPHENOLS” (NESTEC S.A., priority 2014, published 2017)
# Test: Model study: degradation of 5-CQA and formation of its ethylester in 75% ethanolic solution (LC/MS-DAD)
# Type: physicochemical
# Settings: 75% ethanol
# Description: During the experiment 5-CQA was stored in the presence of ethanol (75% ethanolic solution) by varying the following parameters pH, temperature and time.
# The process was conducted under the following conditions using 5-CQA esterification as the model.
# For each trial 10 mg of 5-CQA were dissolved in 40 mL of a 75% ethanolic solution. • pH studies: The pH was adjusted to pH 1, pH 2.7 and pH 4 with hydrochloric acid (32%) and to pH 12 by using NaOH solution (4 N) and all samples were kept in a lab oven at a temperature of 80° C. for 2 hours. • Temperature studies: CQA solutions were adjusted to pH 1 with hydrochloric acid (32%) and kept for 2 hours either at room temperature, 50° C. or 80° C. in a lab oven. • Time studies: 5-CQA solutions were adjusted to pH 1 and kept at room temperature or 50° C. for 1 h, 2 h, 3 h and 36 h (RT only). • System: The analysis was performed on a LC-DAD-MS system using LCQ Deca mass spectrometer (Thermo Finnigan), with a DAD detector (Thermo Finnigan) and a Rheos HPLC system (Thermo Finnigan). • Sample Preparation: For each parameter an aliquot of the solution was diluted 1:10 and directly used for LC/MS-DAD analysis. • HPLC Method: The separation was performed at ambient temperature on a Zorbax Eclipse C18 column, 5 μm, 150*3 mm (Agilent). A binary gradient of A/B (A: 0.1% formic acid, B: methanol) was applied. • MS parameters: The Mass spectrometer used is the LCQ-Deca operated in FullScan and data dependant MS/MS mode (m/z 100-1000) for compound identification.
compound,measurement,setting,value
"O=C(/C=C/c1ccc(O)c(O)c1)O[C@@H]1C[C@@](O)(C(=O)O)C[C@@H](O)[C@@H]1O [5-CQA, 5-caffeoyl quinic acid]",ester detectable as compared to the native 5-CQA,"pH 1, 50° C., 2 h",Up to 40%
same,ester formed,"pH 1, 50° C., period corresponding to desorption duration of up-scaled protocol (within first 3 h)",30%
same,ester as compared to 5-CQA,"pH 1, 80° C., 2 h",same amounts of the ester as compared to 5-CQA
same,transformation of 5-CQA into its ethylester,"pH 1, 80° C., 2 h",rapid transformation of 5-CQA into its ester
same,5-CQA transformed into its ethylester,"pH 1, RT, 2 h",only a small amount
same,ester formed,"pH 1, room temperature, 3 h",3%
same,ester formed,"pH 1, room temperature, 36 h",14%
same,5-CQA esterification,"pH 2.7, 80° C., 2 h",significantly reduced
same,degradation of 5-CQA,"pH 4, 80° C., 2 h",almost not degraded
same,degradation of 5-CQA,"pH 12, 80° C., 2 h",hydrolysis of 5-CQA yielding caffeic and quinic acid
